Experimental data as given in publication PMC2680961, “Homologous desensitization of signalling by the alpha (α) isoform of the human thromboxane A2 receptor: A specific role for nitric oxide signalling” (Biochimica et Biophysica Acta, 2007).
Substitutions are numbered along the chain they refer to.

Assays:
Assay type in all cases: cell-based
TPα^S145A = molecular target: T1, TPα^S145A (Homo sapiens, UniProt P21731, S145A); assay: Intracellular calcium mobilization, HEK.TPα^S145A cells; details: for Δ[Ca2+]i, U46619-induced: HEK.TPα^S145A
T1 construct: expressed in transfected cells
T1 sequence (P21731 1-343 S145A): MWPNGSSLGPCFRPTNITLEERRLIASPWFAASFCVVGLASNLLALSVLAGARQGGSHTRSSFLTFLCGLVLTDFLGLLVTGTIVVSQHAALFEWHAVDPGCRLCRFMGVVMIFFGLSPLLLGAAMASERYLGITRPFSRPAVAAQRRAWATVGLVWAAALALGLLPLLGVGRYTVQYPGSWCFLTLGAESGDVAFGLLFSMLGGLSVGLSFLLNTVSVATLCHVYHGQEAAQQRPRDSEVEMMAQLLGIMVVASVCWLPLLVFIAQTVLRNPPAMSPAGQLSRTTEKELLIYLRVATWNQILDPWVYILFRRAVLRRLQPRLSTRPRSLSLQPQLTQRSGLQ
Procedure: (§1) Measurement of intracellular calcium mobilization ([Ca^2+]i) in FURA2/AM preloaded HEK 293 cell lines (2 × 10^6 cells/dish), each transiently co-transfected with pADVA (10 μg), and pCMV:Gαq (25 μg), was carried out as previously described. To investigate the effect of GRK2/βARK1 on TP-mediated [Ca^2+]i mobilization, HEK.TPα or HEK.TPβ cells (2 × 10^6 cells/dish) were co-transfected with pADVA (10 μg), pCMV:Gαq (25 μg) along with pRK5:βARK1^495–689 (25 μg), encoding a dominant negative form of GRK2/βARK1[39]. Approximately 48 h post-transfection, cells were harvested by scraping, washed twice in ice-cold PBS and resuspended in HBSSHB (modified Ca^2+/Mg^2+-free Hank's buffered salt solution, containing 10 μM HEPES, pH 7.67, 0.1% bovine serum albumin (BSA)) buffer at 10^7 cells/ml and incubated in the dark with 5 μM FURA2/AM for 45 min at 37 °C. […] For each measurement of [Ca^2+]i mobilization, aliquots of cells were diluted to 0.825 × 10^6 cells/ml in HBSSHB, 1 mM CaCl2 and FURA2 fluorescence was recorded (2 ml aliquots of cells) at 37^ °C with gentle stirring with a Perkin Elmer-Cetus LS50-B spectrofluorometer at excitation wavelengths of 340 nm and 380 nm and emission wavelength of 510 nm, respectively.
(§2) Cells were stimulated with the TP agonist U46619 (1 μM) and changes in [Ca^2+]i mobilization were monitored as a function of time. To assess agonist-mediated homologous desensitization, cells (0.825 × 10^6 cells/ml; 2 ml per assay) were stimulated with 1 μM U46619 (Primary stimulation) or, as a control, with the vehicle for 4 min; thereafter, cells were collected by centrifugation (900×g, 5 min); were washed twice in 2 ml HBSSHB, 1 mM CaCl2; and finally resuspended in 2 ml HBSSHB,1 mM CaCl2 and were left to recover over various time intervals (ranging from 0 to 60 min); thereafter, cells re-stimulated with 1 μM U46619 (Secondary stimulation) and changes in [Ca^2+]i mobilization were monitored as a function of time. […]

TPα^S329,331A = molecular target: T2, TPα^S329,331A (Homo sapiens, UniProt P21731, S329A/S331A); assay: Intracellular calcium mobilization, HEK.TPα^S329,331A cells; details: for Δ[Ca2+]i, U46619-induced: HEK.TPα^S329,331A
T2 construct: expressed in transfected cells
T2 sequence (P21731 1-343 S329A/S331A): T1 sequence (P21731 1-343 S145A) with A145S, S329A, S331A
Procedure: as §1, §2

TPα^S329A = molecular target: T3, TPα^S329A (Homo sapiens, UniProt P21731, S329A); assay: Intracellular calcium mobilization, HEK.TPα^S329A cells
T3 construct: expressed in transfected cells
T3 sequence (P21731 1-343 S329A): T1 sequence (P21731 1-343 S145A) with A145S, S329A
Procedure: as §1, with “GRK2/βARK1[39].” for “GRK2/βARK1[39]. Approximately 48 h post-transfection, cells were harvested by scraping, washed twice in ice-cold PBS and resuspended in HBSSHB (modified Ca^2+/Mg^2+-free Hank's buffered salt solution, containing 10 μM HEPES, pH 7.67, 0.1% bovine serum albumin (BSA)) buffer at 10^7 cells/ml and incubated in the dark with 5 μM FURA2/AM for 45 min at 37 °C.”
Cells were stimulated with the TP agonist U46619 (1 μM) and changes in [Ca^2+]i mobilization were monitored as a function of time. […]
The vehicle had no effect on U46619-mediated [Ca^2+]i mobilization. Calibration of the signal was performed in each sample by adding 0.2% Triton X-100 to obtain the maximal fluorescence ratio (Rmax) and then 1 mM EGTA to obtain the minimal fluorescence ratio (Rmin). […]

[1] = secondary 1 μM U46619 at 15 min

`CCCCC[C@H](O)/C=C/[C@@H]1[C@@H](C/C=C\CCCC(=O)O)[C@H]2CO[C@@H]1C2` [U46619] was tested. Which “Δ[Ca2+]i, U46619-induced” value (TPα^S145A; primary 1 μM U46619 4 min) did it give?
The value was 157 ± 3.8 nM.

What about the “Δ[Ca2+]i, U46619-induced” value (TPα^S145A; [1]) of the same compound?
The value was 37 ± 4.2 nM.

What about the “secondary U46619 [Ca2+]i response relative to primary response” value (TPα^S145A; TPα^S145A) of the same compound?
Its value is 24%.

What about the “Δ[Ca2+]i, U46619-induced” value (TPα^S329,331A; primary 1 μM U46619 4 min) of the same compound?
Its value is 176 ± 9.4 nM.

What about the “Δ[Ca2+]i, U46619-induced” value (TPα^S329,331A; [1]) of the same compound?
Its value is 63 ± 4.4 nM.

And the “secondary U46619 [Ca2+]i response relative to primary response” value (TPα^S329,331A; printed as TPα^S239,331A, Fig. 6A and B)?
The value was 36%.

And the “Δ[Ca2+]i, U46619-induced” value (TPα^S329A; primary 1 μM U46619 4 min)?
Its value is 228 ± 7.7 nM.

And the “Δ[Ca2+]i, U46619-induced” value (TPα^S329A; [1])?
Its value is 0 nM.
